Entries after “also recorded” stand apart in the source; their conditions may differ.
Experiments:
[1] = biological target: T1, BoNTA (Clostridium botulinum, UniProt P0DPI1)
Target sequence in this assay (P0DPI1 2-448 limits assumed): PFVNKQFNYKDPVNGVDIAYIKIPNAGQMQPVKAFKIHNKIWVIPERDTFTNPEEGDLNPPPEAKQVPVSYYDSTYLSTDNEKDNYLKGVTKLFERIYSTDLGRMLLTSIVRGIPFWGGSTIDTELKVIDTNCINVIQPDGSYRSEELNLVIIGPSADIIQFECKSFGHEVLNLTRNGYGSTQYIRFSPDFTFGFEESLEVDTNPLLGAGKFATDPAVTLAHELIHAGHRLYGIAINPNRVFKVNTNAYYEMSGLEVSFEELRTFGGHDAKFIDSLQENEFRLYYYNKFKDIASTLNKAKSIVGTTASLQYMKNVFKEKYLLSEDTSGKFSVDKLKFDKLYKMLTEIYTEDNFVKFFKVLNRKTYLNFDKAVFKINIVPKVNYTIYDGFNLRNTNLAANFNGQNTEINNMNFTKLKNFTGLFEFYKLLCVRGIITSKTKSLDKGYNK

[2] = biological target: T1, BoNTA; remark: listed apart in the source
Target sequence in this assay (P0DPI1 whole entry, looked up): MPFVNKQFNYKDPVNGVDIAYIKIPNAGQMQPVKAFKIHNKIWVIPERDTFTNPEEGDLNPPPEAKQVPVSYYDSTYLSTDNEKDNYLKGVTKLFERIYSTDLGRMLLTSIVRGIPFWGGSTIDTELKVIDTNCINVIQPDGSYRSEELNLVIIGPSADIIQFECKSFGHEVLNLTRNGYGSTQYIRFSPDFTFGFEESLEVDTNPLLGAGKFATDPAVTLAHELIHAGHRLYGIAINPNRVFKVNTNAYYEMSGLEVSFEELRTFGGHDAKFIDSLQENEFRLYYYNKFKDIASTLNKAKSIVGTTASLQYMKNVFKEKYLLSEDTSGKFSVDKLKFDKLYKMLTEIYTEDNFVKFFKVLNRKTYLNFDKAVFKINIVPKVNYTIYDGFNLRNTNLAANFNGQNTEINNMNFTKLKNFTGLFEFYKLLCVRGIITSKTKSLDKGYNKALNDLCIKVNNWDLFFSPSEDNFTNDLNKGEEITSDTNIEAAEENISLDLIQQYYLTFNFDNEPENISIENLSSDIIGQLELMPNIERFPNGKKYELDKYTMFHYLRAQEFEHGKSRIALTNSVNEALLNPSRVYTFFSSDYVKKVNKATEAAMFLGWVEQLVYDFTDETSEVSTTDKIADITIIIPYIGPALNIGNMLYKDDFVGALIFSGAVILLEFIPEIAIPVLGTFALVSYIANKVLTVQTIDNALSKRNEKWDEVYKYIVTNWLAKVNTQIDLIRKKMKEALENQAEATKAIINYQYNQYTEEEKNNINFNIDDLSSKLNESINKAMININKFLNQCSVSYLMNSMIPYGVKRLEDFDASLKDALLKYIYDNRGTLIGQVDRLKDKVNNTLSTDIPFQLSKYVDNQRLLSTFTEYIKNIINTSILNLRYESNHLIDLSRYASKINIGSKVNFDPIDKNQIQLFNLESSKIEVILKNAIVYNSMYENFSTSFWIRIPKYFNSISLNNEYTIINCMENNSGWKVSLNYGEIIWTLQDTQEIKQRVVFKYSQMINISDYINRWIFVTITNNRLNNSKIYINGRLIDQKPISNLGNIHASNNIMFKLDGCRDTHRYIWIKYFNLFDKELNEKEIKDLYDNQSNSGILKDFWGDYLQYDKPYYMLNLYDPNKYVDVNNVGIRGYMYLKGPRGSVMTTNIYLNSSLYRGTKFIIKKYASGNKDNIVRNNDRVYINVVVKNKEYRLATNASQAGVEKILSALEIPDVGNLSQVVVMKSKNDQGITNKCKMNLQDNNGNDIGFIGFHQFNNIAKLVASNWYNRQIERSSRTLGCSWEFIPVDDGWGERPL

[3] = biological target: T1, BoNTA; remark: listed apart in the source
Target sequence in this assay (P0DPI1 whole entry, looked up): as above

Substance: Ac IIGNLRHMALDMGNEIDTQNRQIDRIMEKADSNKTRIDEAN Nop R A Pya K Nle L NH2 [Substrate S9]
- BoNT/A concentration that can be quantified ([1]; pH 7.4): 0.2 ng/mL
- metabolites formed on cleavage by BoNTA [2]: only two metabolites formed
- parameters (Km, kcat, Vmax) for the hydrolysis, compared with SNAP 25 [3]: more favorable than for SNAP 25; also recorded: better than those reported for SNAP 25 itself and other substrates reported to date

Substance: Ac-S-N-K-T-R-I-D-E-A-N-Pya-R-A-Nop-K-Nle-L-NH2 [Pya^197Nop^200(187-203)SNAP25]
- cleavage by the toxin BoNT/A [1]: weakly cleaved

Substance: ethylene diamine tetracetate [EDTA]
- effect on fluorescence emitted by degradation of substrate S1 by BoNT/A (enzymatic activity) [1]: inhibition of the fluorescence

From patent US7875436B2 (priority 2004, dated 2011)
